# From patent US20180217163A1, “TREATMENT OF NEURODEGENERATIVE CONDITIONS USING PKC ACTIVATORS AFTER DETERMINING THE PRESENCE OF THE APOE4 ALLELE” (priority 2015, published 2018)
# Read-outs that look alike come from different tables or passages of the source.
# Key:
# [1] = system: PKC; conditions: cited from earlier work
# [2] = system: HDAC6; assay: HDAC6 nuclear translocation in SH-SY5Y cells (immunoblot); type: cell-based, human
# Experimental: (§1) Human SH-SY5Y neuroblastoma cells (Sigma-Aldrich), were cultured in 45% F12K, 45% MEM, and 10% FBS. Cells were treated with cholesterol, ASPD, ApoE3/ApoE4+cholesterol, or PKC activators for 24 h. Cholesterol was dissolved in ethanol. ApoE (20 nM) and cholesterol (100 μM) were mixed separately into the cultures. To block the ApoE receptors, cells were treated with RAP for 30 min before adding ApoE. Human primary neurons (ScienCell Research Laboratories) were plated on poly-L-lysine-coated plates and were maintained in neuronal medium (ScienCell Research Laboratories) supplemented with the neuronal growth supplements (ScienCell Research Laboratories). Half of the culture medium was changed every 3 d and fresh activators were added with every medium change to maintain viable neurons.
# A PBS solution of 5×10^6 Human SH-SY5Y neuroblastoma cells was centrifuged and the resultant cell pellet was resuspended and washed twice with cold PBS. After the second wash, the cell pellet was resuspended in 500 μl of hypotonic buffer (20 mM Tris-Cl, pH 7.4, 10 mM NaCl, 3 mM MgCl2, and 1 mM PMSF) and incubated on ice for 15 min. Next, 25 μl of 10% NP-40 was added to the cell suspension and the sample was vortexed for 10 s. The homogenate was centrifuged for 10 min at 1000×g at 4° C. to obtain the cytoplasmic fraction (supernatant) and nuclear fraction (pellet). After removing the supernetant, the nuclear pellet was resuspended in 50 μl of complete cell extraction buffer (100 mM Tris-Cl, pH 7.4, 2 mM Na3VO4, 100 mM NaCl, 1% Triton X-100, 1 mM EDTA, 10% glycerol, 1 mM EGTA, 0.1% SDS, 1 mM NaF, 0.5% deoxycholate, 20 mM Na4P2O7, and 1 mM PMSF) and incubated on ice for 30 min with vortexing at 10 min intervals. The nuclear lysate was centrifuged at 14,000×g for 30 min at 4° C. to obtain the nuclear fraction (supernatant). Protein concentration was measured using the Coomassie Plus (Bradford) Protein Assay kit (Pierce).
# Protein in samples of the supernetant and nuclear fractions was separated by SDSPAGE in a 4-20% gradient Tris-Glycine gel (Invitrogen). The protein was then transferred to nitrocellulose membrane. The membrane was blocked with BSA at room temperature for 15 min and incubated with primary antibody overnight at 4° C. After incubation, the membrane was washed thrice (3×) with TBS-T (Tris-buffered saline-Tween 20) and further incubated with alkaline-phosphatase-conjugated secondary antibody (Jackson Immunoresearch Laboratories) at 1:10,000 dilution for 45 min. Following incubation, the membrane was washed 3× with TBS-T and developed using the 1-step NBT-BCIP substrate (Pierce). […] The immunoblot proteins were detected using ImageQuant RT-ECL (GE Life Sciences) and densitometric quantification was performed using IMAL software, which was developed at our institution. […]
# [3] = in vivo; cited from earlier work
# [4] = system: HDAC4; assay: HDAC4 nuclear translocation in SH-SY5Y cells (immunoblot); type: cell-based, human
# Experimental: as §1
# A PBS solution of 5×10^6 Human SH-SY5Y neuroblastoma cells was centrifuged and the resultant cell pellet was resuspended and washed twice with cold PBS. After the second wash, the cell pellet was resuspended in 500 μl of hypotonic buffer (20 mM Tris-Cl, pH 7.4, 10 mM NaCl, 3 mM MgCl2, and 1 mM PMSF) and incubated on ice for 15 min. Next, 25 μl of 10% NP-40 was added to the cell suspension and the sample was vortexed for 10 s. The homogenate was centrifuged for 10 min at 1000×g at 4° C. to obtain the cytoplasmic fraction (supernatant) and nuclear fraction (pellet). […] Protein concentration was measured using the Coomassie Plus (Bradford) Protein Assay kit (Pierce).
# Protein in samples of the supernetant and nuclear fractions was separated by SDSPAGE in a 4-20% gradient Tris-Glycine gel (Invitrogen). […] The immunoblot proteins were detected using ImageQuant RT-ECL (GE Life Sciences) and densitometric quantification was performed using IMAL software, which was developed at our institution. […]
# [5] = system: PKC; conditions: cited from earlier work; remark: listed apart in the source
# [6] = target: PKC; conditions: [3H] phorbol dibutyrate competition; cited from earlier work
# [7] = system: squamous cell carcinoma and melanoma; conditions: used topically; cited from earlier work
# [8] = system: NCI 60 cell line screen; conditions: cited from earlier work
# [9] = target: protein kinase C; conditions: (-)-enantiomer; cited from earlier work
# [10] = system: PKCε mRNA; assay: PKCε mRNA expression in SH-SY5Y cells (qRT-PCR); type: cell-based, human; conditions: ASPD-treated cells
# Experimental: as §1
# qRT-PCR was performed and the results analyzed as described previously (Schmittgen et al., Analyzing real-time PCR data by the comparative C(T) method, Nat. Protoc., 3:1101-1108, 2008; Sen et al., 2012 supra). Total RNA (500 ng) was reverse transcribed using oligo(dT) and Superscript III (Invitrogen) at 50° C. for 1 h. The cDNA products were analyzed using a LightCycler 480 II (Roche) PCR machine and LightCycler 480 SYBR Green 1 master mix following the manufacturer's protocol. […]
# [11] = system: BDNF mRNA; assay: BDNF mRNA expression in SH-SY5Y cells (qRT-PCR); type: cell-based, human; conditions: ASPD-treated cells
# Experimental: as §1
# qRT-PCR was performed and the results analyzed as described previously (Schmittgen et al., Analyzing real-time PCR data by the comparative C(T) method, Nat. Protoc., 3:1101-1108, 2008; Sen et al., 2012 supra). Total RNA (500 ng) was reverse transcribed using oligo(dT) and Superscript III (Invitrogen) at 50° C. for 1 h. The cDNA products were analyzed using a LightCycler 480 II (Roche) PCR machine and LightCycler 480 SYBR Green 1 master mix following the manufacturer's protocol. Primers for PKCε (forward primer: […], reverse primer: […], PKCα (forward-[…], reverse: […]), PKC (forward: […], reverse: CCGATG […]), GAPDH (forward: […], reverse: […]), and BDNF (forward: […], reverse: […]; Origene).
# [12] = ApoE4+ASPD induced translocation, 24 h
# [13] = A-ring bryologs, read-out: affinity for PKC
# [14] = RAP 100 nM, 30 min before ApoE+Chol 24 h
molecule,measurement,setting,value
CCCCCCCC(=O)O[C@H]1/C(=C/C(=O)OC)C[C@H]2C[C@H](CO)OC(=O)C[C@H](O)C[C@@H]3CCC[C@H](C[C@@H]4CCO[C@H](/C=C/C(C)(C)[C@]1(O)O2)O4)O3 [Analog 1],affinity for PKC,[1],highest affinity for PKC
same,Ki,[1]; read-out: PKC Affin,0.25 nM
CCC/C=C/C=C/C(=O)O[C@H]1/C(=C/C(=O)OC)C[C@H]2C[C@H]([C@@H](C)O)OC(=O)C[C@H](O)C[C@@H]3C[C@H](OC(C)=O)C(C)(C)C(O)(C[C@@H]4C/C(=C/C(=O)OC)C[C@H](/C=C/C(C)(C)[C@]1(O)O2)O4)O3 [Bryostatin-1],reduction in nuclear HDAC6,[2]; [12],46±9.2%
same,dose exhibiting no toxicity,[3],20 μg/week
same,dose that may be associated with muscle pain,[3],more than 35 μg/week
same,reduction of nuclear import of HDAC4,[4]; [12],40±8.4%
"CCC1CC1CC1CC1CC1CC1CC1CC1CC1CC1CC1CC1CCC(=O)OC (stereo not shown) [DHA-CP6, cyclopropanated docosahexaenoic acid methyl ester]",effective concentration,[5],10 nM
"CC1=C[C@]23C(=O)[C@@H](C=C(COC(=O)c4ccccc4)[C@@H](O)[C@]2(O)[C@H]1OC(=O)c1ccccc1)[C@H]1[C@@H](C[C@H]3C)C1(C)C [Ingenol 3,20-dibenzoate]",Ki,[6],240 nM
C/C=C(/C)C(=O)O[C@H]1C(C)=C[C@]23C(=O)[C@@H](C=C(CO)[C@@H](O)[C@]12O)[C@H]1[C@@H](C[C@H]3C)C1(C)C [Ingenol-3-angelate],antitumor activity,[7],exhibits antitumor activity
CC1=CC[C@H](C)C(C)(C)[C@@H]1/C=C/C(C)=C/CC[C@@]1(CO)[C@H](CCCO)/C(=C(/C)C=O)CC[C@]1(C)O [Iripallidal],GI50 (concentration required to inhibit growth by 50%),[8],from micromolar to nanomolar range
CCCCCCCCc1ccc2c3c(c[nH]c13)C[C@@H](CO)NC(=O)[C@H](C(C)C)N2C [Octylindolactam V],EC50,[9],29 nM
CCCCCCCC(=O)OC1C(=CC(=O)OC)CC2CC(CO)OC(=O)CC(O)CCOC(C(C)(C)C)CC3CCOC(C=CC(C)(C)C1(O)O2)O3 (stereo not shown) [bryolog 3],Ki,[1]; [13],6.5 nM
CCCCCCCC(=O)OC1C(=CC(=O)OC)CC2CC(CO)OC(=O)CC(O)CCOC(c3ccccc3)CC3CCOC(C=CC(C)(C)C1(O)O2)O3 (stereo not shown) [bryolog 4],Ki,[1]; [13],2.3 nM
CCCCCCCC(=O)OC1C(=CC(=O)OC)CC2CC(CO)OC(=O)CC(O)CCOC(CCCc3ccc(Br)cc3)CC3CCOC(C=CC(C)(C)C1(O)O2)O3 (stereo not shown) [bryolog 5],Ki,[1]; [13],1.9 nM
"ASPD+Chol: amyloid-β amylospheroids prepared from Aβ1-42, plus cholesterol","HDAC6 in the nucleus, percentage of total protein","[2]; 24 h, immunoblot",21.7±2.8%
same,PKCε mRNA levels,[10],0.58±0.06 fold
same,BDNF mRNA levels,[11],0.62±0.05 fold
"RAP: recombinant human receptor-associated protein, ApoE receptor binding protein, from Molecular Innovations (protein, UniProt P30533 35-357, looked up) Alpha-2-macroglobulin …: YSREKNQPKPSPKRESGEEFRMEKLNQLWEKAQRLHLPPVRLAELHADLKIQERDELAWKKLKLDGLDEDGEKEARLIRNLNVILAKYGLDGKKDARQVTSNSLSGTQEDGLDDPRLEKLWHKAKTSGKFSGEELDKLWREFLHHKEKVHEYNVLLETLSRTEEIHENVISPSDLSDIKGSVLHSRHTELKEKLRSINQGLDRLRRVSHQGYSTEAEFEEPRVIDLWDLAQSANLTDKELEAFREELKHFEAKIEKHNHYQKQLEIAHEKLRHAESVGDGERVSRSREKHALLEGRTKELGYTVKKHLQDLSGRISRARHNEL",effect of RAP pretreatment on ApoE-mediated nuclear translocation of HDAC6,[2]; [14],abolished the effects of ApoE3+Chol and ApoE4+Chol
same,effect of RAP pretreatment on ApoE-mediated nuclear translocation of HDAC4,[4]; [14],abolished the effects of ApoE3+Chol and ApoE4+Chol
